In patent US20220017471A1, “FUNCTIONALITY INDEPENDENT LABELING OF ORGANIC COMPOUNDS” (Shanghai Tech University, priority 2018, published 2022):
Where a name gives a salt, the structure may show the parent alone.

What was measured:
[1] = molecular target: T1, heat shock 70 kDa protein (HSP70) (Homo sapiens, UniProt P0DMV8); experiment: nDEL affinity selection against HSP70 (enrichment fold by deep sequencing); type: binding; conditions: ratio of normalized sequencing counts in presence and absence of target protein; DNA-encoded compound
T1 construct: purchased Sino Biological 11660-H07H
Protocol: (§1) The panning procedure for these two soluble protein were the same. 5 μg of target protein was mixed with Ni-charged MagBeads (GenScript, Cat. #L00295), 5 nM DEL library and 10 μg/mL Salmon sperm DNA. The final volume to adjusted to 100 μL. The mixture was rotated at room temperature for 1.5 h. After washing 5 times by phosphate-buffered saline supplemented 0.05% Tween-20 (PBST), the target protein binding chemical-DNA conjugations were eluted by heating at 95° C. for 10 min in 50 μL elution buffer (20 mM Tris, pH 7.4, 100 mM NaCl). The eluted DEL compounds were amplified by PCR using Takara PrimerSTAR Max DNA Polymerase (Takara, Cat. #R045A). Then the excess primers was removed by Hieff NGS™ smarter DNA clean beads (Yeasen, Cat. #12600E503) and evaluated on 4% DNA agarose gel. The amplified products was subjected for high-throughput sequencing using Illumina HiSeq X10 Analyzer.
The combinatorial chemical library was constructed by three building block sub libraries, containing 6, 46 and 46 chemical building blocks respectively for the first, second and third building block libraries, respectively. Each building block was encoded by a 10-base pair (bp) DNA sequence. The natural products were encoded by a 30-bp DNA sequence, same length as the combinatorial chemical library DNA codes. […] After sequencing, the Illumina adaptors around the DNA coding sequences were trimmed by CLC genomics workbench version 12 (Qiagen). The left DNA coding sequences were 30 bp in length corresponding to the three DNA sequences of building blocks in 3 rounds of “split-pool” iterations. For each sample, the DNA coding sequences were mapped to the reference DNA encoding compound library. No mismatch was allowed in the mapping. The coding sequences were counted for all the compounds across different samples. The total read-counts of all the compounds in a given sample were calculated. The read-counts for each individual compound were divided by the total counts, multiplied with a constant of 100000.
(§2) NormalizedCountCompoundM,SampleA=CountCompoundM,SampleA/(TotalCountSampleA)*100000
The fold changes of each compound in the after-selection library comparing to the reference library were calculated.
(§3) FoldChangeCompoundM=NormalizedCountCompoundM,SampleA/NormalizedCountCompoundM,Ref
(§4) The hit criteria of nDEL screening take into account of both the normalized enrichment fold values (y-axis) and deep sequencing read counts (x-axis). Compounds with read counts less than 10 are considered unreliable, thus they are eliminated immediately from DEL before on-target screening. For each DEL library, a baseline enrichment fold is recorded in the absence of target protein, and a normalized enrichment fold value can be calculated for each DEL compound in the library. The cutoff for hits identification is based on a simplified statistical analysis of a highly diverse population of data, which is the sum of average value of enrichment-folds of the whole library (μ) plus 3 times of the standard deviation (σ).
Two target proteins with different cellular locations and biophysical properties were used in nDEL screens. […] The known functional binders for these targets were included in nDEL as internal positive controls, e.g., oridonin for HSP70 and derivatives of olaparib (F001, F002, F003 and F006) for PARP-1. To account for the non-uniform distribution of DNA barcodes in nDEL, a blank screen of nDEL in the absence of target proteins but presence of immobilization matrix beads was carried out first and followed by deep-sequencing to establish the baseline distribution of barcodes in the library. All screening data were analyzed using the method described by Decurtins et al., Nat Protoc. […] The corresponding DNA sequence of each nDEL compound were tallied based on its sequencing counts. The enrichment fold is calculated as the ratio of normalized sequencing counts in the presence and absence of target protein.

[2] = molecular target: T2, poly [ADP-ribose] polymerase 1 (PARP1) (Homo sapiens, UniProt P09874); experiment: nDEL affinity selection against PARP-1 (enrichment fold by deep sequencing); type: binding; conditions: for Fold Change, enrichment folds for PARP-1 binder selection: ratio of normalized sequencing counts in presence and absence of target protein, DNA-encoded compound
T2 construct: purchased Sino Biological 11040-H08B
Protocol: as §1, with “The his-tag fused recombinant human PARP-1 (Sino Biological, Cat. #11040-H08B) and human-HSP70 (Sino Biological, Cat. #11660-H07H) were obtained from commercial source. The panning” for “The panning”
The combinatorial chemical library was constructed by three building block sub libraries, containing 6, 46 and 46 chemical building blocks respectively for the first, second and third building block libraries, respectively. Each building block was encoded by a 10-base pair (bp) DNA sequence. The natural products were encoded by a 30-bp DNA sequence, same length as the combinatorial chemical library DNA codes. All the possible combinations (combinatorial chemical compounds) between these three sub libraries were generated by an inhouse java program, which generated a reference DNA encoding library contains 12696 DNA encoding sequences. After sequencing, the Illumina adaptors around the DNA coding sequences were trimmed by CLC genomics workbench version 12 (Qiagen). The left DNA coding sequences were 30 bp in length corresponding to the three DNA sequences of building blocks in 3 rounds of “split-pool” iterations. For each sample, the DNA coding sequences were mapped to the reference DNA encoding compound library. No mismatch was allowed in the mapping. The coding sequences were counted for all the compounds across different samples. The total read-counts of all the compounds in a given sample were calculated. The read-counts for each individual compound were divided by the total counts, multiplied with a constant of 100000.
as §2
The fold changes of each compound in the after-selection library comparing to the reference library were calculated. For example, if SampleA and Reference library were compared, for the fold change of CompoundM was calculated as:
as §3, §4
Two target proteins with different cellular locations and biophysical properties were used in nDEL screens. […] The known functional binders for these targets were included in nDEL as internal positive controls, e.g., oridonin for HSP70 and derivatives of olaparib (F001, F002, F003 and F006) for PARP-1.

O=c1ccc2ccc(O)cc2o1 [7-Hydroxycoumarin]
Enrichment Fold, HSP70 binder selection [1]: 4.2

Oc1cc(O)c2c(c1)O[C@H](c1ccc(O)c(O)c1)[C@@H](O)C2 [(+) Catechin]
Enrichment Fold, HSP70 binder selection [1]: 2.7

O=C(O[C@@H]1Cc2c(O)cc(O)cc2O[C@@H]1c1ccc(O)c(O)c1)c1cc(O)c(O)c(O)c1 [(−)-Epicatechin gallate, (−)- Epicatechingallate]
Enrichment Fold, HSP70 binder selection [1]: 5.0
Fold Change, enrichment folds for PARP-1 binder selection [2]: 2.81

O=C1c2ccccc2C(=O)c2c1ccc(O)c2O [Alizarin]
Enrichment Fold, HSP70 binder selection [1]: 4.3
Fold Change, enrichment folds for PARP-1 binder selection [2]: 2.02

C[C@H]1[C@H](OC(=O)CCC(=O)O)O[C@@H]2O[C@@]3(C)CC[C@H]4[C@H](C)CC[C@@H]1[C@@]24OO3 [Artesunate]
Enrichment Fold, HSP70 binder selection [1]: 2.4

O=c1cc(-c2ccccc2)oc2cc(O)c(O)c(O)c12 [Baicalein]
Enrichment Fold, HSP70 binder selection [1]: 3.6

COc1c(O)cc2c(c1O)[C@@H]1O[C@H](CO)[C@@H](O)[C@H](O)[C@H]1OC2=O [Bengenin]
Enrichment Fold, HSP70 binder selection [1]: 3.6

c1ccc(CNc2ncnc3nc[nH]c23)cc1 [Benzyladenine]
Enrichment Fold, HSP70 binder selection [1]: 3.6

COc1ccc(-c2coc3cc(O)cc(O)c3c2=O)cc1 [Biochanin A]
Enrichment Fold, HSP70 binder selection [1]: 3.7

Cc1c(F)cccc1NC(=O)Nc1ccc(Cl)c(S(=O)(=O)[C@H]2CCCNC2)c1O [Danirixin]
Enrichment Fold, HSP70 binder selection [1]: 2.9

O=c1ccc2ccc(O)c(O)c2o1 [Daphnetin]
Enrichment Fold, HSP70 binder selection [1]: 3.9
Fold Change, enrichment folds for PARP-1 binder selection [2]: 2.17

Oc1cc(O)c2c(c1)O[C@H](c1cc(O)c(O)c(O)c1)[C@H](O)C2 [Epigallocatechin, epigallocatechin]
Enrichment Fold, HSP70 binder selection [1]: 4.3
Fold Change, enrichment folds for PARP-1 binder selection [2]: 2.53

O=c1ccc2cc(O)c(O)cc2o1 [Esculetin]
Enrichment Fold, HSP70 binder selection [1]: 4.1

COc1cc2ccc(=O)oc2c(O)c1O [Fraxetin]
Enrichment Fold, HSP70 binder selection [1]: 3.3
Fold Change, enrichment folds for PARP-1 binder selection [2]: 2.01

COc1cc2c(cc1O)CC[n+]1cc3c(OC)c(OC)ccc3cc1-2 [Jatrorrhizine hydrochloride]
Enrichment Fold, HSP70 binder selection [1]: 4.5
Fold Change, enrichment folds for PARP-1 binder selection [2]: 2.23

COc1cc2c(cc1O)CC[n+]1cc3c(OC)c(OC)ccc3cc1-2 [Jatrorrhizine]
Enrichment Fold, HSP70 binder selection [1]: 3.7
Fold Change, enrichment folds for PARP-1 binder selection [2]: 2.04

c1coc(CNc2ncnc3[nH]cnc23)c1 [Kinetin]
Enrichment Fold, HSP70 binder selection [1]: 2.8

O=C1C[C@@H](c2ccc(O)cc2)Oc2cc(O)ccc21 [Liquiritigenin]
Enrichment Fold, HSP70 binder selection [1]: 2.7

O=C1C[C@@H](c2ccc(O[C@@H]3O[C@H](CO)[C@@H](O)[C@H](O)[C@H]3O)cc2)Oc2cc(O)ccc21 [Liquiritin]
Enrichment Fold, HSP70 binder selection [1]: 3.9
Fold Change, enrichment folds for PARP-1 binder selection [2]: 2.66

COC(=O)c1ccc(O)c(O)c1 [Methyl protocatechuate]
Enrichment Fold, HSP70 binder selection [1]: 3.6

C[C@@H]1O[C@@H](O[C@H]2[C@H](Oc3cc(O)c4c(c3)O[C@H](c3ccc(O)cc3)CC4=O)O[C@H](CO)[C@@H](O)[C@@H]2O)[C@H](O)[C@H](O)[C@H]1O [Naringin]
Enrichment Fold, HSP70 binder selection [1]: 4.5
Selected among enriched chemicals in PARP-1 nDEL screening ([2]; hit selection, FIG. 20(b), FIG. 21): selected
Fold Change, enrichment folds for PARP-1 binder selection [2]: 2.17

COC(=O)Nc1nc2ccc(C(=O)c3cccs3)cc2[nH]1 [Nocodazole, reference compound]
Enrichment Fold, HSP70 binder selection [1]: 3.9
Fold Change, enrichment folds for PARP-1 binder selection [2]: 2.06

CC(=O)c1c(O)cc(O)cc1O [Phloracetophenone]
Enrichment Fold, HSP70 binder selection [1]: 3.5

O=C(CCc1ccc(O)cc1)c1c(O)cc(O)cc1O[C@@H]1O[C@H](CO)[C@@H](O)[C@H](O)[C@H]1O [Phlorizin]
Enrichment Fold, HSP70 binder selection [1]: 3.8

COc1cc(C(=O)O[C@H]2[C@@H]3C=CO[C@@H](O[C@@H]4O[C@H](CO)[C@@H](O)[C@H](O)[C@H]4O)[C@@H]3[C@@]3(CO)O[C@@H]23)ccc1O [Picroside II]
Enrichment Fold, HSP70 binder selection [1]: 4.0

CC1=CC(=O)c2c(O)cccc2C1=O [Plumbagin]
Enrichment Fold, HSP70 binder selection [1]: 4.4
Fold Change, enrichment folds for PARP-1 binder selection [2]: 2.97

O=C(O)c1ccc(O)c(O)c1 [Protocatechuic acid]
Enrichment Fold, HSP70 binder selection [1]: 3.8

Cc1ncc(CO)c(CO)c1O [Pyridoxine, reference compound]
Enrichment Fold, HSP70 binder selection [1]: 3.4

COc1cc2ccc(=O)oc2cc1O [Scopoletin]
Enrichment Fold, HSP70 binder selection [1]: 6.0
Fold Change, enrichment folds for PARP-1 binder selection [2]: 2.82

CNCC(O)c1ccc(O)cc1 (stereo not drawn) [Synephrine]
Enrichment Fold, HSP70 binder selection [1]: 3.2
Fold Change, enrichment folds for PARP-1 binder selection [2]: 2.17

Cn1cnc2c1c(=O)[nH]c(=O)n2C [Theobromine, reference compound]
Enrichment Fold, HSP70 binder selection [1]: 4.3
Fold Change, enrichment folds for PARP-1 binder selection [2]: 2.42

Cn1c(=O)c2c(ncn2CC(=O)O)n(C)c1=O [Theophylline-7-acetic acid, Theophylline-7-acetic acid, reference compound]
Enrichment Fold, HSP70 binder selection [1]: 3.3

O=c1c(O)c(-c2ccc(O)c(O)c2)oc2cc(O)cc(O)c12 [quercetin, Quercetin]
Enrichment Fold, HSP70 binder selection [1]: 2.8

O=c1c2ccccc2nc2n1CCc1c-2[nH]c2ccccc12 [rutaecarpin]
Enrichment Fold, HSP70 binder selection [1]: 3.2

COC1=C[C@@H]2[C@@H]3Cc4ccc(OC)c(O)c4[C@]2(CCN3C)CC1=O [sinomenine]
Enrichment Fold, HSP70 binder selection [1]: 3.2

(+)-Catechin Hydrate
Enrichment Fold, HSP70 binder selection [1]: 3.8
